# Measured values: US20160228489A1, “PHARMACEUTICAL COMPOSITION FOR THE PREVENTION AND THE TREATMENT OF DEGENERATIVE SKIN DISORDERS ESPECIALLY CAUSED BY IONIZING RADIATIONS” (SOLOSALE S.R.L., priority 2011, published 2016)
# System: Cultured skin fibroblasts exposed to UV rays
# Experiment: cultured skin fibroblasts exposed to UV rays: intracellular GSH and cell survival
# Format: cell-based
# Conditions: for cell survival, % (24 h after end of irradiation) / intracellular GSH, % compared to controls (3 h after incubation): fibroblasts exposed to UV rays, 3 h incubation with formulation containing 100 μM S-acyl-glutathione; for cell survival, % (24 h after end of irradiation): UV without compound 10, unexposed control 100; for intracellular GSH, % compared to controls (3 h after incubation): UV without compound 30, unexposed control 100; for effectiveness for increase of intracellular GSH and of cell survival following exposure to ultraviolet radiation (in words): similar experiments, same concentrations
compound,measurement,value
"CC/C=C\C/C=C\C/C=C\CCCCCCCC(=O)N[C@@H](CCC(=O)N[C@@H](CSC(=O)CCCCCCC/C=C\C/C=C\C/C=C\CC)C(=O)NCC(=O)O)C(=O)O [S,N-di-linolenoyl-S-glutathione]","cell survival, % (24 h after end of irradiation)",98%
same,"intracellular GSH, % compared to controls (3 h after incubation)",113%
"Cc1c(C)c2c(c(C)c1O)CCC(C)(C(=O)O)O2 (stereo not shown) [Trolox®, reference compound]",effectiveness for increase of intracellular GSH and of cell survival following exposure to ultraviolet radiation (in words),did not produce significant effects
CCCCC/C=C\C/C=C\C/C=C\C/C=C\CCCC(=O)SC[C@H](NC(=O)CC[C@H](N)C(=O)O)C(=O)NCC(=O)O [arachidonoyl-S-glutathione],"cell survival, % (24 h after end of irradiation)",100%
same,"intracellular GSH, % compared to controls (3 h after incubation)",115%
"O=C1O[C@H]([C@@H](O)CO)C(O)=C1O [ascorbic acid, reference compound]",effectiveness for increase of intracellular GSH and of cell survival following exposure to ultraviolet radiation (in words),did not produce significant effects
CC/C=C\C/C=C\C/C=C\C/C=C\C/C=C\C/C=C\CCC(=O)O [docosahexaenoic acid],effectiveness for increase of intracellular GSH and of cell survival following exposure to ultraviolet radiation (in words),results similar to those obtained with linolenic and arachidonic acids
"CC/C=C\C/C=C\C/C=C\C/C=C\C/C=C\CCCC(=O)SC[C@H](NC(=O)CC[C@H](N)C(=O)O)C(=O)NCC(=O)O [eicosapentaenoic acid, eicosapentaenoyl-S-glutathione]",effectiveness for increase of intracellular GSH and of cell survival following exposure to ultraviolet radiation (in words),results similar to those obtained with linolenic and arachidonic acids
CC/C=C\C/C=C\C/C=C\CCCCCCCC(=O)SCC(NC(=O)CCC(N)C(=O)O)C(=O)NCC(=O)O (stereo not shown) [linolenoyl-S-glutathione],"cell survival, % (24 h after end of irradiation)",97%
same,"intracellular GSH, % compared to controls (3 h after incubation)",115%
CCCCC/C=C\C/C=C\CCCCCCCC(=O)SC[C@H](NC(=O)CC[C@H](N)C(=O)O)C(=O)NCC(=O)O [linoleyl-S-glutathione],"cell survival, % (24 h after end of irradiation)",63%
same,"intracellular GSH, % compared to controls (3 h after incubation)",110%
CCCCCCCC/C=C\CCCCCCCC(=O)SC[C@H](NC(=O)CC[C@H](N)C(=O)O)C(=O)NCC(=O)O [oleyl-S-glutathione],"cell survival, % (24 h after end of irradiation)",35%
same,"intracellular GSH, % compared to controls (3 h after incubation)",85%
"Oc1ccc(C=Cc2cc(O)cc(O)c2)cc1 [resveratrol, reference compound]",effectiveness for increase of intracellular GSH and of cell survival following exposure to ultraviolet radiation (in words),did not produce significant effects
vitamin E [reference compound],effectiveness for increase of intracellular GSH and of cell survival following exposure to ultraviolet radiation (in words),did not produce significant effects
